Experiments:
[1] = target: dopamine transporter (DAT) (Homo sapiens, UniProt Q01959); experiment: Dopamine reuptake inhibition, [3H]-DA, HEK-293 cells transfected with dopamine transporter cDNA; details: for Triple reuptake inhibition (Ratio %) DAT: compound 1 μM, relative to control without compound (100%), lower value = stronger inhibition
Protocol: (§1) After removing the medium, each compound of Examples or Comparative Examples diluted to 1 μM in uptake buffer was added to a concentration of 200 μL/well and cultured at 37° C. for 15 minutes. 100 μL of uptake buffer containing 20-30 nM [3H]-DA was added and cultured at 37° C. for 5 minutes. The reaction solution was quickly removed and washed three times with 1 mL ice-cold uptake buffer. After dissolving the resultant in 1% SDS (0.5 mL), the degree of binding of radioisotope-labeled dopamine to the transporter was measured.
(§2) In addition, when evaluating the reuptake inhibitory effect on dopamine, norepinephrine, and serotonin, the same method was performed without treating each compound of Examples or Comparative Examples as a control, the degree of binding of radioisotope-labeled dopamine, norepinephrine, and serotonin to the transporter was measured, and by using this as a reference (100%), the triple reuptake inhibitory effect was evaluated as a relative ratio (Ratio %). That is, in the control group, the binding of dopamine, norepinephrine, and serotonin to transporters is not inhibited, but when each compound of Examples is treated and thus the binding is inhibited, the Ratio % value decreases.

[2] = target: norepinephrine transporter (NET) (Homo sapiens, UniProt P23975); experiment: Norepinephrine reuptake inhibition, [3H]-NE, cells transfected with NE transporter cDNA; details: for Triple reuptake inhibition (Ratio %) NET: compound 1 μM, relative to control without compound (100%), lower value = stronger inhibition
Protocol: as §1
(§3) For norepinephrine(NE) and serotonin(5-HT), the degree of binding of radioisotope-labeled norepinephrine or serotonin to the transporter was measured in the same manner as above, except that cells transfected with NE or 5-HT transporter cDNA were used and [3H]-NE or [3H]-5-HT was used as a substrate.
as §2

[3] = target: serotonin transporter (SERT) (Homo sapiens, UniProt P31645); experiment: Serotonin reuptake inhibition, [3H]-5-HT, cells transfected with 5-HT transporter cDNA; details: for Triple reuptake inhibition (Ratio %) SERT: compound 1 μM, relative to control without compound (100%), lower value = stronger inhibition
Chain of serotonin transporter (SERT) (P31645 whole entry, species assumed): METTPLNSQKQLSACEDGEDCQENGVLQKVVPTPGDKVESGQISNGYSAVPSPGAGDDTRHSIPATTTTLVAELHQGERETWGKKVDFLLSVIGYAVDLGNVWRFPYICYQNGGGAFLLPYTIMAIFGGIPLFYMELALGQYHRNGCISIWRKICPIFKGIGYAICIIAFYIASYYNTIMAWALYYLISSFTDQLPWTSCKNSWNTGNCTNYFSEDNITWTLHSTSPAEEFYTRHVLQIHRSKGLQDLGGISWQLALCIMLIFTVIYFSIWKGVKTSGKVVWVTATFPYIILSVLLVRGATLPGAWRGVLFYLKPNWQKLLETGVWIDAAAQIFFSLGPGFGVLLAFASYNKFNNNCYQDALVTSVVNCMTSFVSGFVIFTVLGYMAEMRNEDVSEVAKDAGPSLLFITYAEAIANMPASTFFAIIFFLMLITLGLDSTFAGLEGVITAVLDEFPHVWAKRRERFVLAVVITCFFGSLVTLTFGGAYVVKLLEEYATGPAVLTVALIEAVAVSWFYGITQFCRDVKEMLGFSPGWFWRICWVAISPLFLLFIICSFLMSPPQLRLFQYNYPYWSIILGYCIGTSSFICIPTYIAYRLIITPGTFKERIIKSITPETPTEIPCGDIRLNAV
Protocol: as §1, §3, §2

Chain of norepinephrine transporter (NET) (P23975 whole entry, species assumed): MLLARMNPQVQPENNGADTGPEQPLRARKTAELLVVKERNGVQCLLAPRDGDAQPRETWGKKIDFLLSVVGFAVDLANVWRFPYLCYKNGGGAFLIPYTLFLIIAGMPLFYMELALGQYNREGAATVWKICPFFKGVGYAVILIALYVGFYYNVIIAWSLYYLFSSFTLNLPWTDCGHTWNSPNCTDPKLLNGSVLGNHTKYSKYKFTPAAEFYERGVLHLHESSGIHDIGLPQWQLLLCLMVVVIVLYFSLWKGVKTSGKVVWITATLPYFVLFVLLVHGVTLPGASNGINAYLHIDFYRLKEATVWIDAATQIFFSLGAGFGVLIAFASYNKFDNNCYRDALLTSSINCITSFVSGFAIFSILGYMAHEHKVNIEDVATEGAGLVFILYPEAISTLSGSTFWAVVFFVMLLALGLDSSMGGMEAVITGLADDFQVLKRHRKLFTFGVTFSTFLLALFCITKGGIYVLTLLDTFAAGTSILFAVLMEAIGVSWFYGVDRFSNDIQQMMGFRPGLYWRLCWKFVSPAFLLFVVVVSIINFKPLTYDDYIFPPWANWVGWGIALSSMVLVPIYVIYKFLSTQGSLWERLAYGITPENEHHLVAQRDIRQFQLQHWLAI
Chain of dopamine transporter (DAT) (Q01959 whole entry, species assumed): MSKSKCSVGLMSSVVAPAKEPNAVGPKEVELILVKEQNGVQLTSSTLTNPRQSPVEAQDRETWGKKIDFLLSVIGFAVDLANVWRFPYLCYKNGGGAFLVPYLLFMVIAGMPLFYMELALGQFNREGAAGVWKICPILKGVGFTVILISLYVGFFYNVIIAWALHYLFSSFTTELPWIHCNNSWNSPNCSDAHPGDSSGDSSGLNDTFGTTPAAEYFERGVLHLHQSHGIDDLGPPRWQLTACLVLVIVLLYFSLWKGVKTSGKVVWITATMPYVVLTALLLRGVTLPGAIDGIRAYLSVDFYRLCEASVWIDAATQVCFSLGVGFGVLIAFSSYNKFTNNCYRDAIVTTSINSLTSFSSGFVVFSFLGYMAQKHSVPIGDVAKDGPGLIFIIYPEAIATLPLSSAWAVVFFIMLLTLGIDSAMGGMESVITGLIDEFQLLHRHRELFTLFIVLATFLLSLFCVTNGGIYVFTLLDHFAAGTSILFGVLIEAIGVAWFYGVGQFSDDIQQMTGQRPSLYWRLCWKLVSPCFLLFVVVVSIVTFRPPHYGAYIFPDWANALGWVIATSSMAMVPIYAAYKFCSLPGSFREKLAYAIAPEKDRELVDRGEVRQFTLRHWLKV

| Triple reuptake inhibition (Ratio %) DAT [1] [%] | Triple reuptake inhibition (Ratio %) NET [2] [%] | Triple reuptake inhibition (Ratio %) SERT [3] [%] | IC50 [1] [nM] | IC50 [2] [nM] | IC50 [3] [nM] | Compound |
| --- | --- | --- | --- | --- | --- | --- |
| 26.92 | 53.01 | 88.78 |  |  |  | c1ccc(CC2CCN(Cc3nnc(-c4cc5ccccc5s4)[nH]3)CC2)cc1 [Example 26, 1-((5-(benzo[b]thiophen-2-yl)-4H-1,2,4-triazol-3-yl)methyl)-4-benzylpiperidine] |
| 9.71 | 53.55 | 59.52 | 62 | 1990 | 968 | c1ccc(CC2CCN(Cc3nnc(-c4ccc5c(c4)OCO5)[nH]3)CC2)cc1 [Example 27, 1-((5-(benzo[d][1,3]dioxol-5-yl)-4H-1,2,4-triazol-3-yl)methyl)-4-benzylpiperidine] |
| 65.47 | 85.85 | 93.63 |  |  |  | O=C(O)c1ccc2[nH]c(-c3nnc(CN4CCC(Cc5ccccc5)CC4)[nH]3)cc2c1 [Example 28, 2-(5-((4-benzylpiperidin-1-yl)methyl)-4H-1,2,4-triazol-3-yl)-1H-indol-5-carboxylic acid] |
| 36.13 | 45.28 | 72.63 |  |  |  | Fc1ccc2[nH]c(-c3nnc(CN4CCC(Cc5ccc(Cl)c(Cl)c5)CC4)[nH]3)cc2c1 [Example 29, 2-(5-((4-(3,4-dichlorobenzyl)piperidin-1-yl)methyl)-4H-1,2,4-triazol-3-yl)-5-fluoro-1H-indole] |
| 72.11 | 96.77 | 88.71 |  |  |  | Cc1ccc2[nH]c(-c3nnc(CN4CCC(Cc5ccc(Cl)c(Cl)c5)CC4)[nH]3)cc2c1 [Example 30, 2-(5-((4-(3,4-dichlorobenzyl)piperidin-1-yl)methyl)-4H-1,2,4-triazol-3-yl)-5-methyl-1H-indole] |
| 19.20 | 32.54 | 32.68 | 204 | 459 | 276 | COc1cc2cc(-c3nnc(CN4CCC(Cc5ccc(Cl)c(Cl)c5)CC4)[nH]3)[nH]c2cc1OC [Example 31, 2-(5-((4-(3,4-dichlorobenzyl)piperidin-1-yl)methyl)-4H-1,2,4-triazol-3-yl)-5,6-dimethoxy-1H-indole] |
| 35.65 | 56.53 | 27.99 | 629 | 427 | 300 | Oc1cc2cc(-c3nnc(CN4CCC(Cc5ccccc5)CC4)[nH]3)[nH]c2cc1O [Example 35, 2-(5-((4-benzylpiperidin-1-yl)methyl)-4H-1,2,4-triazol-3-yl)-1H-indol-5,6-diol] |
| 69.78 | 85.40 | 41.52 |  |  |  | COc1ccc2[nH]cc(-c3nnc(CN4CCC(Cc5ccccc5)CC4)[nH]3)c2c1 [Example 36, 3-(5-((4-benzylpiperidin-1-yl)methyl)-4H-1,2,4-triazol-3-yl)-5-methoxy-1H-indole] |
| 40.29 | 79.91 | 27.71 | 349 | 1570 | 322 | COc1cccc2c(-c3nnc(CN4CCC(Cc5ccccc5)CC4)[nH]3)c[nH]c12 [Example 37, 3-(5-((4-benzylpiperidin-1-yl)methyl)-4H-1,2,4-triazol-3-yl)-7-methoxy-1H-indole] |
| 31.70 | 64.82 | 51.55 | 670 | 361 | 518 | Cc1ccc2c(-c3nnc(CN4CCC(Cc5ccccc5)CC4)[nH]3)c[nH]c2c1 [Example 38, 3-(5-((4-benzylpiperidin-1-yl)methyl)-4H-1,2,4-triazol-3-yl)-6-methyl-1H-indole] |
| 79.20 | 99.14 | 58.07 |  |  |  | Cc1ccc2[nH]cc(-c3nnc(CN4CCC(Cc5ccccc5)CC4)[nH]3)c2c1 [Example 39, 3-(5-((4-benzylpiperidin-1-yl)methyl)-4H-1,2,4-triazol-3-yl)-5-methyl-1H-indole] |
| 50.15 | 92.42 | 53.66 | 670 | 924 | 648 | Clc1cccc2c(-c3nnc(CN4CCC(Cc5ccccc5)CC4)[nH]3)c[nH]c12 [Example 40, 3-(5-((4-benzylpiperidin-1-yl)methyl)-4H-1,2,4-triazol-3-yl)-7-chloro-1H-indole] |
| 62.96 | 86.61 | 57.01 |  |  |  | Clc1ccc2[nH]cc(-c3nnc(CN4CCC(Cc5ccccc5)CC4)[nH]3)c2c1 [Example 41, 3-(5-((4-benzylpiperidin-1-yl)methyl)-4H-1,2,4-triazol-3-yl)-5-chloro-1H-indole] |
| 42.13 | 96.81 | 42.17 | 453 | 969 | 417 | COC(=O)c1cccc2c(-c3nnc(CN4CCC(Cc5ccccc5)CC4)[nH]3)c[nH]c12 [Example 42, methyl 3-(5-((4-benzylpiperidin-1-yl)methyl)-4H-1,2,4-triazol-3-yl)-1H-indol-7-carboxylate] |
| 54.93 | 88.30 | 35.57 | 435 | 4040 | 506 | Nc1ccc2[nH]cc(-c3nnc(CN4CCC(Cc5ccccc5)CC4)[nH]3)c2c1 [Example 43, 3-(5-((4-benzylpiperidin-1-yl)methyl)-4H-1,2,4-triazol-3-yl)-1H-indol-5-amine] |
| 80.58 | 92.59 | 28.87 |  |  |  | COc1ccc2[nH]cc(-c3nnc(CN4CCC(Cc5ccc(Cl)c(Cl)c5)CC4)[nH]3)c2c1 [Example 44, 3-(5-((4-(3,4-dichlorobenzyl)piperidin-1-yl)methyl)-4H-1,2,4-triazol-3-yl)-5-methoxy-1H-indole] |
| 72.49 | 112.38 | 21.98 |  |  |  | COc1cccc2c(-c3nnc(CN4CCC(Cc5ccc(Cl)c(Cl)c5)CC4)[nH]3)c[nH]c12 [Example 45, 3-(5-((4-(3,4-dichlorobenzyl)piperidin-1-yl)methyl)-4H-1,2,4-triazol-3-yl)-7-methoxy-1H-indole] |
| 13.85 | 53.00 | 60.13 | 203 | 816 | 2980 | N#Cc1ccc(-c2nnc(CN3CCC(Cc4ccccc4)CC3)[nH]2)cc1 [Example 46, 4-(5-((4-benzylpiperidin-1-yl)methyl)-4H-1,2,4-triazol-3-yl)benzonitrile] |
| 20.47 | 68.26 | 51.93 | 372 | 1170 | 10700 | Fc1ccc(-c2nnc(CN3CCC(Cc4ccccc4)CC3)[nH]2)cc1 [Example 47, 4-benzyl-1-((5-(4-fluorophenyl)-4H-1,2,4-triazol-3-yl)methyl)piperidine] |
| 20.20 | 23.52 | 53.41 | 134 | 348 | 2560 | COc1ccc(-c2nnc(CN3CCC(Cc4ccccc4)CC3)[nH]2)cc1OC [Example 48, 4-benzyl-1-((5-(3,4-dimethoxyphenyl)-4H-1,2,4-triazol-3-yl)methyl)piperidine] |
| 11.41 | 44.81 | 63.99 | 223 | 475 | 1770 | FC(F)(F)Oc1ccc(-c2nnc(CN3CCC(Cc4ccccc4)CC3)[nH]2)cc1 [Example 49, 4-benzyl-1-((5-(4-(trifluoromethoxy)phenyl)-4H-1,2,4-triazol-3-yl)methyl)piperidine] |

| Compound | Triple reuptake inhibition (Ratio %) DAT [1] [%] | Triple reuptake inhibition (Ratio %) NET [2] [%] | Triple reuptake inhibition (Ratio %) SERT [3] [%] | IC50 [1] [nM] | IC50 [2] [nM] | IC50 [3] [nM] |
| --- | --- | --- | --- | --- | --- | --- |
| Fc1ccc2[nH]c(-c3nnc(CN4CCC(c5c[nH]c6ccccc56)CC4)[nH]3)cc2c1 [Example 32, 2-(5-((4-(1H-indol-3-yl)piperidin-1-yl)methyl)-4H-1,2,4-triazol-3-yl)-5-fluoro-1H-indole] | 44.81 | 93.09 | 51.31 |  |  |  |
| c1ccc(CC2CCN(Cc3nnc(-c4cc5ccccc5[nH]4)o3)CC2)cc1 [Example 33, 2-((4-benzylpiperidin-1-yl)methyl)-5-(1H-indol-2-yl)-1,3,4-oxadiazole] | 97.72 | 145.38 | 103.08 |  |  |  |
| Clc1ccc(CC2CCN(Cc3nnc(-c4cc5ccccc5[nH]4)o3)CC2)cc1Cl [Example 34, 2-((4-(3,4-dichlorobenzyl)piperidin-1-yl)methyl)-5-(1H-indol-2-yl)-1,3,4-oxadiazole] | 90.85 | 124.25 | 94.18 |  |  |  |

Reference: patent US20230212144A1, “5-MEMBERED HETEROARYL DERIVATIVE CONTAINING AT LEAST ONE N, AND PHARMACEUTICAL COMPOSITION FOR PREVENTING OR TREATING MENTAL DISORDERS, CONTAINING SAME AS ACTIVE INGREDIENT” (DAEGU-GYEONGBUK MEDICAL INNOVATION FOUNDATION, priority 2020, published 2023)
